Results on 22 compounds are retold here after US11033539B2, “Compounds of formulas (VII), (VIII), (IX), (XI), (XII), (XIII), and (XIV) as muscarinic receptor 4(M4) antagonists for treating neurological diseases” (Neurocrine Biosciences, Inc., priority 2015, dated 2021).

pKi: −log10 of the molar value. A value given as a limit tells only on which side of the number the result lay.

For assay [1], the target named is human M1 receptor (Homo sapiens (Human), UniProt P11229). The assay can be described thus: Radioligand (tritiated N-methylscopolamine) binding assay, M1. The note with it: CHO cell membranes expressing human M1; 1.5 nM tritiated N-methylscopolamine; 90 min, 37° C.; read-out: Ki against M1 receptor (Table 21, M1). In short, it runs like this: (§1)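 Compounds were tested at twelve concentrations ranging from 10 μM to […] against 1.5 nM radioligand on CHO cell membranes expressing each subtype. Incubation lasts 90 min at 37 °C in HEPES-buffered saline with Mg2+ and EDTA, pH 7.4, and filtration then separates bound radioligand.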
human M1 receptor, sequence (P11229 whole entry): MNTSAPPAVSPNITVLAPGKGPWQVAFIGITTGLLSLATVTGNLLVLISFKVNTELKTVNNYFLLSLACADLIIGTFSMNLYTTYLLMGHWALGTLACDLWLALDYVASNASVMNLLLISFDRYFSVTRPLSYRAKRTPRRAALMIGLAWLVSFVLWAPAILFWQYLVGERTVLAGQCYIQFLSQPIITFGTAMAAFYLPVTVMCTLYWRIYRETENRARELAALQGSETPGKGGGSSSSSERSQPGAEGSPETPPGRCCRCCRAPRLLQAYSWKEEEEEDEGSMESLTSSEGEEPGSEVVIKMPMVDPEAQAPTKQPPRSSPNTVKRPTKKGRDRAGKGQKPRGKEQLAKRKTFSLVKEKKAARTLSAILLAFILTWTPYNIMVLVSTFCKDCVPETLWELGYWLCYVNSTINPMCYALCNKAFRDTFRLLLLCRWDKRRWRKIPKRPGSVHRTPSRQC

For assay [2], the target named is human M2 receptor (Homo sapiens (Human), UniProt P08172). The assay can be described thus: Radioligand (tritiated N-methylscopolamine) binding assay, M2. To be noted: CHO cell membranes expressing human M2; 1.5 nM tritiated N-methylscopolamine; 90 min, 37° C.; read-out: Ki against M2 receptor (Table 21, M2). Put shortly: as §1
human M2 receptor, sequence (P08172 whole entry): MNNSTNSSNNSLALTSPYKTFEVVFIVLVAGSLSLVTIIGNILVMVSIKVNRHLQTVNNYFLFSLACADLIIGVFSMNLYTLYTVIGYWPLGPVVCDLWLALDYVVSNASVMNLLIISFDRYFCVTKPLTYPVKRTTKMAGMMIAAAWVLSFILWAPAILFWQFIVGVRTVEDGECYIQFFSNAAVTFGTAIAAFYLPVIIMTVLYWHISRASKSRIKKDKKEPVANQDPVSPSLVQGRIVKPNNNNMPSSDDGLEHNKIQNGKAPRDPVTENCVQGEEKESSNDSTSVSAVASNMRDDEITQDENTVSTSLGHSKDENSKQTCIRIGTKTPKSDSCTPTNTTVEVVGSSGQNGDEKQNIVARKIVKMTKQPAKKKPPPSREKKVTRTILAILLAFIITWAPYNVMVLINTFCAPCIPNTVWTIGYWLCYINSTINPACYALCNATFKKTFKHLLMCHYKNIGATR
For assay [3], the target named is human M3 receptor (Homo sapiens (Human), UniProt P20309). As to the kind of experiment: Radioligand (tritiated N-methylscopolamine) binding assay, M3. The note with it: CHO cell membranes expressing human M3; 1.5 nM tritiated N-methylscopolamine; 90 min, 37° C.; read-out: Ki against M3 receptor (Table 21, M3). Put shortly:
as §1

For assay [4], the target named is human M4 receptor (Homo sapiens (Human), UniProt P08173). As to the kind of experiment: Radioligand (tritiated N-methylscopolamine) binding assay, M4. To be noted: Ki against the M4 receptor; membranes from CHO cells expressing human M4; tritiated N-methylscopolamine 1.5 nM; read-out: Ki. Put shortly: as §1
human M4 receptor, sequence (P08173 whole entry): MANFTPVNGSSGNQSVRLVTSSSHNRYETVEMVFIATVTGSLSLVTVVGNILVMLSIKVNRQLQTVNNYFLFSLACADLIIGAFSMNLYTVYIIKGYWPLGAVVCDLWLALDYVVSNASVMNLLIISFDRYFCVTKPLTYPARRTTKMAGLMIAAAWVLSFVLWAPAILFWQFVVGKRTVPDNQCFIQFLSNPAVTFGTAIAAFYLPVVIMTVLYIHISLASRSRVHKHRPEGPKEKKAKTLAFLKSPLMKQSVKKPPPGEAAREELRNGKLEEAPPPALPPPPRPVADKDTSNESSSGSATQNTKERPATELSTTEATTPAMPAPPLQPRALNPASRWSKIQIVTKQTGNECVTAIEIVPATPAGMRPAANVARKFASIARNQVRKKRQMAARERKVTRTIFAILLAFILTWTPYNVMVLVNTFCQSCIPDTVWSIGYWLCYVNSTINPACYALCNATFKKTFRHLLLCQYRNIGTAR
Assay [5] concerns the target human M5 receptor (Homo sapiens (Human), UniProt P08912). As to the kind of experiment: Radioligand (tritiated N-methylscopolamine) binding assay, M5. The note with it: CHO cell membranes expressing human M5; 1.5 nM tritiated N-methylscopolamine; 90 min, 37° C.; read-out: Ki against M5 receptor (Table 21, M5). Put shortly:
as §1

human M3 receptor, sequence (P20309 whole entry): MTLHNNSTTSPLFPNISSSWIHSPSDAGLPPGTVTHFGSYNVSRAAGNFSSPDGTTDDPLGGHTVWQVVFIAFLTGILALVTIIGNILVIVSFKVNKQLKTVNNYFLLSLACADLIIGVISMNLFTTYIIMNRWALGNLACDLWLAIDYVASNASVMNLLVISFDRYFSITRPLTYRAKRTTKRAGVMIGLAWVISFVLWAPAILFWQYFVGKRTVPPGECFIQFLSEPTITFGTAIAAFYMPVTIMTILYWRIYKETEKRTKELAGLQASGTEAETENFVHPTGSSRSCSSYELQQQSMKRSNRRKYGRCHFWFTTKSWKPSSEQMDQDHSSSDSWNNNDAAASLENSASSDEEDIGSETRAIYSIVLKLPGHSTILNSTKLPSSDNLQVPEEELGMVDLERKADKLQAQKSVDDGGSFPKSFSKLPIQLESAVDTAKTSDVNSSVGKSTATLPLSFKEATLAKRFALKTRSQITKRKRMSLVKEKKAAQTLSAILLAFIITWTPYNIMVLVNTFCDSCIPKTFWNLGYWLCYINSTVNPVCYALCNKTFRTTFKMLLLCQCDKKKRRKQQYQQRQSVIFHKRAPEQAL
human M5 receptor, sequence (P08912 whole entry): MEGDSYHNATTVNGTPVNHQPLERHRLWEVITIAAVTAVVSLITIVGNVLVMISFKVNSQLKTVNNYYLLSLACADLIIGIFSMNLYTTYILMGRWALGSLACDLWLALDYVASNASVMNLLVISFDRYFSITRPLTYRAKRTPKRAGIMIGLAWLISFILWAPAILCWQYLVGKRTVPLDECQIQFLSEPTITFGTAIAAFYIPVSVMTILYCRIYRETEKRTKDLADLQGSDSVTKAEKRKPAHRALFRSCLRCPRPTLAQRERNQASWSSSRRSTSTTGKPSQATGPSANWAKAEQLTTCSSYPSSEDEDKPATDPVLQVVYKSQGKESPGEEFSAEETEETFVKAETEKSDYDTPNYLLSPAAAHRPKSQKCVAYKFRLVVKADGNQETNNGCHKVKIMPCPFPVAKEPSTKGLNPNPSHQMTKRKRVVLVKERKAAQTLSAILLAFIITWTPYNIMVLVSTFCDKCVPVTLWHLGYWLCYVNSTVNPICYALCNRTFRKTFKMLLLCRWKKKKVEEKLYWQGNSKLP

With `C[C@@H]1CN(c2cnc(C(F)(F)F)cn2)C[C@H](C)N1C(=O)NCCC1CCN(Cc2ccccc2)CC1` [22-23], the pKi (commonly the negative decadic logarithm of the Ki, by convention in mol/L) in assay [1] is 6.00 to 7.00; in assay [2] it was more than 8.00; in assay [3], 6.00 to 7.00; in assay [4], more than 8.00; in assay [5], 6.00 to 7.00.
On to `O=C(NCCC1CCN(Cc2ccccc2)CC1)N1CCN(c2ccc(C(F)(F)F)cn2)CC1` [4-77, N-[2-(1-benzylpiperidin-4-yl)ethyl]-4-[5-(trifluoromethyl)pyridin-2-yl]piperazine-1-carboxamide], for which the pKi in assay [1] is 6.00 to 7.00; in assay [2] it was 7.00 to 8.00; in assay [3], less than 6.00; in assay [4] it was more than 8.00; in assay [5], less than 6.00.
Take `C[C@@H]1CN(c2ccc(OC(F)(F)F)cn2)CCN1C(=O)NCCC1CCN(Cc2ccccc2)CC1` [3-13, (2R)-N-[2-(1-benzylpiperidin-4-yl)ethyl]-2-methyl-4-[5-(trifluoromethoxy)pyridin-2-yl]piperazine-1-carboxamide]: the pKi was 6.00 to 7.00 in assay [1]; 6.00 to 7.00 in assay [2]; less than 6.00 in assay [3]; more than 8.00 in assay [4]; less than 6.00 in assay [5].
As for `C[C@@H]1CN(c2ncc(C#N)cn2)C[C@H](C)N1C(=O)NCCC1CCN(Cc2ccc(O)cc2)CC1` [6-42, (2R,6S)-4-(5-cyanopyrimidin-2-yl)-N-(2-{1-[(4-hydroxyphenyl)-methyl]piperidin-4-yl}ethyl)-2,6-dimethylpiperazine-1-carboxamide], the pKi in assay [1] was less than 6.00; in assay [2] it was 7.00 to 8.00; in assay [3], 6.00 to 7.00; in assay [4] it was more than 8.00; in assay [5], less than 6.00.
`O=C(NCCC1CCN(Cc2ccccc2)CC1CO)N1CCN(c2cc(F)c(F)c(F)c2)CC1` (centres unmarked) [3-19, N-{2-[1-benzyl-3-(hydroxymethyl)piperidin-4-yl]ethyl}-4-(3,4,5-trifluorophenyl)piperazine-1-carboxamide]: the pKi was less than 6.00 in assay [1]; 6.00 to 7.00 in assay [2]; less than 6.00 in assay [3]; more than 8.00 in assay [4]; less than 6.00 in assay [5].
For the compound `C[C@H]1CN(c2ncc(Cl)cn2)CCC1C(=O)NCCC1CCN(Cc2ccccc2)CC1` (stereo partly drawn) [20-3, (3R)-N-[2-(1-benzylpiperidin-4-yl)ethyl]-1-(5-chloropyrimidin-2-yl)-3-methylpiperidine-4-carboxamide], the pKi was 6.00 to 7.00 in assay [1]; 6.00 to 7.00 in assay [2]; 6.00 to 7.00 in assay [3]; more than 8.00 in assay [4]; less than 6.00 in assay [5].
For `C[C@@H]1CN(C(=O)NCCC2CCN(Cc3ccccc3)CC2)CCN1c1ccc(OC(F)(F)F)c(F)c1` [4-22, (3R)-N-[2-(1-benzylpiperidin-4-yl)ethyl]-4-[3-fluoro-4-(trifluoromethoxy)phenyl]-3-methylpiperazine-1-carboxamide], the pKi is less than 6.00 in assay [1]; 6.00 to 7.00 in assay [2]; less than 6.00 in assay [3]; more than 8.00 in assay [4]; 6.00 to 7.00 in assay [5].
Take `COc1cc(N2CCC(C(=O)NCCC3CCN(Cc4ccccc4)CC3)CC2)ccc1OC(F)(F)F` [10-10, N-[2-(1-benzylpiperidin-4-yl)ethyl]-1-[3-methoxy-4-(trifluoromethoxy)phenyl]piperidine-4-carboxamide]: the pKi in assay [1] is 6.00 to 7.00; in assay [2], 6.00 to 7.00; in assay [3], less than 6.00; in assay [4], more than 8.00; in assay [5], less than 6.00.
As to `Cc1c(C(=O)NCCC2CCN(Cc3ccccc3)CC2)cnc2cc(-c3cc(F)cc(F)c3)nn12` [18-5], the pKi in assay [1] was less than 6.00; in assay [2], 6.00 to 7.00; in assay [3] it was less than 6.00; in assay [4], more than 8.00; in assay [5], less than 6.00.
With `Cc1cc(N2CCC(C(=O)NCCC3CCN(Cc4ccccc4)CC3)CC2)ccc1OC(F)(F)F` [10-56, N-[2-(1-benzylpiperidin-4-yl)ethyl]-1-[3-methyl-4-(trifluoromethoxy)phenyl]piperidine-4-carboxamide], the negative logarithm of the Ki (pKi) was 6.00 to 7.00 in assay [1]; 7.00 to 8.00 in assay [2]; 6.00 to 7.00 in assay [3]; more than 8.00 in assay [4]; less than 6.00 in assay [5].
With `C[C@@H]1CN(c2ccc(C#N)c(F)c2)CCN1C(=O)NCCC1CCN(Cc2ccccc2)CC1` [22-15], the pKi in assay [1] was 6.00 to 7.00; in assay [2], 7.00 to 8.00; in assay [3], less than 6.00; in assay [4], more than 8.00; in assay [5], 6.00 to 7.00.
On to `COc1cc(N2CCN(C(=O)NCCC3CCN(Cc4ccccc4)CC3)[C@H](C)C2)cc(F)c1C#N` [22-32], for which the pKi in assay [1] was 6.00 to 7.00; in assay [2], 6.00 to 7.00; in assay [3], less than 6.00; in assay [4], more than 8.00; in assay [5], 6.00 to 7.00.
Regarding `C[C@@H]1CN(c2ccc(F)c(C#N)c2)CCN1C(=O)NC[C@@H](O)C1CCN(Cc2ccccc2)CC1` [3-18, (2R)-N-[(2S)-2-(1-benzylpiperidin-4-yl)-2-hydroxyethyl]-4-(3-cyano-4-fluorophenyl)-2-methylpiperazine-1-carboxamide], the pKi was less than 6.00 in assay [1]; less than 6.00 in assay [2]; less than 6.00 in assay [3]; more than 8.00 in assay [4]; less than 6.00 in assay [5].
As to `C[C@@H]1CN(c2ncc(C#N)c(N)n2)CCN1C(=O)NCCC1CCN(Cc2ccccc2)CC1` [5-1, (2R)-4-(4-amino-5-cyanopyrimidin-2-yl)-N-[2-(1-benzylpiperidin-4-yl)ethyl]-2-methylpiperazine-1-carboxamide], the pKi in assay [1] is less than 6.00; in assay [2], 6.00 to 7.00; in assay [3], less than 6.00; in assay [4], more than 8.00; in assay [5] it was less than 6.00.
Regarding `C[C@@H]1CN(c2ccc(Cl)c(F)c2)CCN1C(=O)NCCC1CCN(Cc2ccccc2)CC1` [22-14], the pKi was 6.00 to 7.00 in assay [1]; 7.00 to 8.00 in assay [2]; 6.00 to 7.00 in assay [3]; more than 8.00 in assay [4]; 6.00 to 7.00 in assay [5].
Turning to `C[C@H]1CN(c2ncc(C(F)(F)F)cc2F)CCC1C(=O)NCCC1CCN(Cc2ccccc2)CC1` (stereo partly drawn) [10-81, (3R)-N-[2-(1-benzylpiperidin-4-yl)ethyl]-1-[3-fluoro-5-(trifluoromethyl)pyridin-2-yl]-3-methylpiperidine-4-carboxamide], the pKi in assay [1] is 7.00 to 8.00; in assay [2], 7.00 to 8.00; in assay [3], 7.00 to 8.00; in assay [4] it was more than 8.00; in assay [5] it was 6.00 to 7.00.
`C[C@@H]1CN(c2cc(C(F)(F)F)ccn2)CCN1C(=O)NCCC1CCN(Cc2ccccc2)CC1` [4-12, (2R)-N-[2-(1-benzylpiperidin-4-yl)ethyl]-2-methyl-4-[4-(trifluoromethyl)pyridin-2-yl]piperazine-1-carboxamide]: the pKi is 6.00 to 7.00 in assay [1]; 7.00 to 8.00 in assay [2]; 6.00 to 7.00 in assay [3]; more than 8.00 in assay [4]; less than 6.00 in assay [5].
Take `C[C@@H]1CN(c2cc(F)c(F)c(F)c2)CCN1C(=O)NCCC1(O)CCN(Cc2ccccc2)CC1` [7-1, (2R)-N-[2-(1-benzyl-4-hydroxypiperidin-4-yl)ethyl]-2-methyl-4-(3,4,5-trifluorophenyl)piperazine-1-carboxamide]: the negative logarithm of the Ki (pKi) in assay [1] is less than 6.00; in assay [2], less than 6.00; in assay [3], less than 6.00; in assay [4] it was more than 8.00; in assay [5], less than 6.00.
In the case of `Nc1nc(N2CCN(C(=O)NCCC3CCN(Cc4ccccc4)CC3)CC2)ncc1C(F)(F)F` [5-30, 4-[4-amino-5-(trifluoromethyl)pyrimidin-2-yl]-N-[2-(1-benzylpiperidin-4-yl)ethyl]piperazine-1-carboxamide], the pKi was less than 6.00 in assay [1]; 6.00 to 7.00 in assay [2]; less than 6.00 in assay [3]; more than 8.00 in assay [4]; less than 6.00 in assay [5].
Take `O=C(NCCC1CCN(Cc2ccccc2)CC1)C1CCN(c2ccc(F)c(F)c2)CC1` [10-21, N-[2-(1-benzylpiperidin-4-yl)ethyl]-1-(3,4-difluorophenyl)piperidine-4-carboxamide]: the pKi was less than 6.00 in assay [1]; 6.00 to 7.00 in assay [2]; less than 6.00 in assay [3]; more than 8.00 in assay [4]; less than 6.00 in assay [5].
On to `C[C@@H]1CN(c2ncc(Br)cn2)CCN1C(=O)NCCC1CCN(Cc2ccccc2)CC1` [5-31, (2R)-N-[2-(1-benzylpiperidin-4-yl)ethyl]-4-(5-bromopyrimidin-2-yl)-2-methylpiperazine-1-carboxamide], for which the pKi in assay [1] was 7.00 to 8.00; in assay [2], more than 8.00; in assay [3], 7.00 to 8.00; in assay [4] it was more than 8.00; in assay [5], 6.00 to 7.00.
Turning to `C[C@@H]1CN(c2cc(F)c(F)c(F)c2)CCN1C(=O)NCCC1CCN(Cc2ccccc2)CC1` [3-12, (2R)-N-[2-(1-benzylpiperidin-4-yl)ethyl]-2-methyl-4-(3,4,5-trifluorophenyl)piperazine-1-carboxamide], the pKi was 6.00 to 7.00 in assay [1]; 7.00 to 8.00 in assay [2]; less than 6.00 in assay [3]; more than 8.00 in assay [4]; less than 6.00 in assay [5].
